≈ marks a conversion by molar mass, not a printed value. Read-outs that look alike come from different tables or passages of the source.
What was measured:
OCT3 = target: T1, OCT3 (Homo sapiens, UniProt O75751); assay: Preclinical transporter substrate assessment (unpublished); type: in vitro ADME
T1 sequence (O75751 1-556): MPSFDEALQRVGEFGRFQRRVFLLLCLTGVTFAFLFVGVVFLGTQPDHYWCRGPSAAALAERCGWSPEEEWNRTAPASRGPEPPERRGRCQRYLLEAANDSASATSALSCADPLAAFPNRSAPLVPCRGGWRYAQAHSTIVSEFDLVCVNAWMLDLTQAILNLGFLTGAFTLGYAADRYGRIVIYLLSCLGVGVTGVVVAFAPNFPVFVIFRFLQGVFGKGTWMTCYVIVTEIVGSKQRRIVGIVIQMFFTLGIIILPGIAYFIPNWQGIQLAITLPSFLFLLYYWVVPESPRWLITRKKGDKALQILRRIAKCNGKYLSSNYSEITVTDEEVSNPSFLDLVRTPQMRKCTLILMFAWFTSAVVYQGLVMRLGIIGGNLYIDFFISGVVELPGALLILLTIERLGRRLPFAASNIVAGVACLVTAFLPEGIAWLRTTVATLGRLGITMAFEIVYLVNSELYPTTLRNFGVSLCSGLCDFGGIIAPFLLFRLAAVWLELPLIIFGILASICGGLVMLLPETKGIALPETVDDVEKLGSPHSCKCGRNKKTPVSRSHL

[1] = Biliary drainage study in rats (unpublished); type: in vivo
OCT2 = target: T2, OCT2 (Homo sapiens, UniProt O15244); assay: Preclinical transporter substrate assessment (unpublished); type: in vitro ADME
T2 sequence (O15244 1-555): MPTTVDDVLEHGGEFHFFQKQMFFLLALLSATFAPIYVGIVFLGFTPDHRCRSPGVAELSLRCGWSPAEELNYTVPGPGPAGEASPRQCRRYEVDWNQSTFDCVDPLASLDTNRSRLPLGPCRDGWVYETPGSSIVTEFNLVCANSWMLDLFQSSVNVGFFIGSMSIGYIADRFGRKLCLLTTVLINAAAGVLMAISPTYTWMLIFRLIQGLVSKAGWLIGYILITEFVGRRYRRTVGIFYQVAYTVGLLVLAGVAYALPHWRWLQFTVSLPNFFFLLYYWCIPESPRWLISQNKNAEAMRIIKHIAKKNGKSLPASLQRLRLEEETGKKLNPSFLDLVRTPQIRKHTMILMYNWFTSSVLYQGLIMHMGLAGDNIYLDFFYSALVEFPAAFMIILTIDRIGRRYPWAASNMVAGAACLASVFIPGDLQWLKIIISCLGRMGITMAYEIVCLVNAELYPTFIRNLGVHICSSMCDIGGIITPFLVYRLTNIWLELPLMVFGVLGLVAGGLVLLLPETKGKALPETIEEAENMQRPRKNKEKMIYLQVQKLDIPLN

[2] = Predicted by SIVA from dissolution profile in FaSSGF
Source text: Based on the results of the two-stage biorelevant dissolution test (see Fig. 4 in 3.2 section), the precipitation parameters in the DLM were not assessed, and the critical supersaturation ratio (CSC) and precipitation rate constant (PRC) were set to the minimum values, respectively.
Furthermore, solubility parameters, representing the influence of pH and bile salts on the solubility, were estimated by Eq. (3) according to the experimental results.
Accordingly, it was unnecessary to evaluate the precipitation parameters for the development of DLM, which (CSC and PCR) were set to minimum values in DLM. Most importantly, the dissolution parameters, such as heff and DLMs, were estimated by Eq. (4) from the dissolution profile in 300 mL FaSSGF medium. Meanwhile, the disintegration lag time of the formulation was evaluated with the method of Weibull function, so that the dissolution profile could be captured by Eq. (4).

[3] = Multidose clinical study of biweekly HSK7653 IR tablets in T2DM patients (CTR20182505): pharmacokinetics; type: in vivo, human; conditions: biweekly administration of IR tablets
[4] = Particle size distribution of the API (laser diffraction); type: physicochemical; conditions: dry method
Method: The determination was performed in a dry method with a Scirocco dry powder feeder, and the air was used as the dispersion agent ([Tari et al., 2015]). Meanwhile, the analysis results, d (0.1), d (0.5) and d (0.9) (defined as the diameter where 10%, 50% and 90% of population lies below this value), were directly output.

[5] = Equilibrium solubility of the HSK7653 API in various media; type: physicochemical; conditions: 37 °C, thermodynamic from solid
Method: Tests were performed by adding an excess amount of API to vials and stirring continuously at a speed of 200 rpm for 24 h at 37 °C. The API concentration was detected once per minute by an in situ fiber-optic ultraviolet (UV) dissolution real-time monitoring system (Pion Scientific Instruments, Billerica, MA, USA). All measurements were performed with n = 3.

[6] = Single ascending dose clinical study in Chinese healthy volunteers (CTR20180791): pharmacokinetics; type: in vivo, human; conditions: for AUC / Cmax / clearance / Vd/F: human, in vivo, oral, Chinese healthy volunteers; for clearance: read-out: CL Obs (converted); for Vd/F: read-out: VZ/F Obs
[7] = 10 mg, 10 mg single dose, fasted
[8] = 25 mg, 25 mg single dose, fasted
[9] = 50 mg, 50 mg single dose, fasted
[10] = 100 mg, 100 mg single dose, fasted
[11] = 150 mg, 150 mg single dose, fasted

In the case of `CS(=O)(=O)n1cc2c(n1)CN([C@@H]1C[C@H](N)[C@@H](c3cc(F)ccc3F)O[C@@H]1C(F)(F)F)C2` [HSK7653], the Transporter substrate assessment (OCT3) is reported as “not a common transport substrate”, the “Radioactivity recovered in biliary drainage study” value [1] is reported as “approximately 16.6%” and the Transporter substrate assessment (OCT2) is reported as “not a common transport substrate”. The “DLM Scalar values” ([2]; All segments) was 3.009, the heff cut-off value ([2]; Hintz-Johnson) was 36.345 μm and the Accumulation [3] was “no accumulation”. For the same compound, the “d (0.1)” value [4] was 1.313 μm, the “d (0.5)” value [4] was 3.288 μm and the “d (0.9)” value [4] was 8.163 μm. For the same compound, the solubility at 24 h ([5]; fassgf or other biorelevant, FaSSGF medium) was about 5310 µg/mL (≈ 11.4 mM), the solubility at 24 h ([5]; FaSSIF medium) was about 342 µg/mL (≈ 0.733 mM) and the solubility thermodynamic at 24 h ([5]; pH 1.0 hydrochloric acid (HCl) solution, simulated gastric fluid, pH 1.0 HCl solution) was 11600 µg/mL (≈ 24.8 mM). For the same compound, the solubility thermodynamic at 24 h ([5]; pH 8.0 phosphate buffer saline (PBS), aqueous buffer, pH 8.0 PBS) was 120 µg/mL (≈ 0.257 mM), the “Increase in AUC under the fed state compared with the fasted state” value ([6]; clinical study) was 3% and the AUC ([6]; 5 mg, 5 mg single dose, fasted) was 8980 ng·h/mL. For the same compound, the Cmax ([6]; 5 mg, 5 mg single dose, fasted) was 101 ng/mL, the clearance ([6]; 5 mg, 5 mg single dose, fasted) was 9.67 mL/min and the Vd/F ([6]; 5 mg, 5 mg single dose, fasted) was 1.65 L/kg. The AUC [6, 7] was 17700 ng·h/mL, the Cmax [6, 7] was 237 ng/mL and the clearance [6, 7] was 9.67 mL/min. It also gave a Vd/F [6, 7] of 1.71 L/kg, an AUC [6, 8] of 40500 ng·h/mL and a Cmax [6, 8] of 413 ng/mL. It also gave a clearance [6, 8] of 10.2 mL/min, a Vd/F [6, 8] of 1.52 L/kg and an AUC [6, 9] of 90400 ng·h/mL. It also gave a Cmax [6, 9] of 981 ng/mL, a clearance [6, 9] of 9.67 mL/min and a Vd/F [6, 9] of 1.26 L/kg. For the same compound, the AUC ([6]; 50 mg, 50 mg single dose, fed) was 92900 ng·h/mL, the Cmax ([6]; 50 mg, 50 mg single dose, fed) was 834 ng/mL and the clearance ([6]; 50 mg, 50 mg single dose, fed) was 9.5 mL/min. The Vd/F ([6]; 50 mg, 50 mg single dose, fed) was 1.37 L/kg, the AUC [6, 10] was 218000 ng·h/mL and the Cmax [6, 10] was 2130 ng/mL. It also gave a clearance [6, 10] of 8.33 mL/min, a Vd/F [6, 10] of 1.07 L/kg and an AUC [6, 11] of 269000 ng·h/mL. For the same compound, the Cmax [6, 11] was 3330 ng/mL, the clearance [6, 11] was 11 mL/min and the Vd/F [6, 11] was 1.13 L/kg. The Dose linearity ([6]; within the currently selected therapeutic dose range) was “dose linear”.
